Measured values taken from US11492325B2, “Compounds as inhibitors of sodium channels” (Human BioMolecular Research Institute, priority 2016, dated 2022).
Like-named read-outs stand apart in the source and are kept apart here.

Columns and labels:
[1] = Chemical stability in PBS buffer at pH 7.4 or 3.0, 37° C.; assay type: physicochemical; conditions: 1% Ethanol
Description: A typical incubation contained 100 μM of the test compound prepared in PBS buffer (pH 7.4 or 3.0, 50 mM) with 1% Ethanol. The test compounds were incubated at 37° C. An aliquot from incubations was taken at various times and injected onto an RP-HPLC system as described above. Disappearance of the analyte was monitored over time.

[2] = system: normal human induced pluripotent stem cell (hiPSC) cardiomyocyte; conditions: for WT-Cessation Dose (μM): WT cardiomyocytes, cessation of beating; for WT-Fold Prolongation: APD
[3] = system: normal human induced pluripotent stem cell (hiPSC) cardiomyocyte; assay: cells; conditions: read-out: WT-EC50 (μM) Prolongation
[4] = system: cardiomyocytes derived from hiPSCs from a LQTS3 patient; assay: cells; conditions: Homo sapiens, Cardiomyocyte; for IC50: read-out: LQT-IC50 (uM)-Shortening
[5] = Metabolism in human hepatic S9; conditions: for Liver S-9 T1/2: s9
Description: (§1) A typical incubation contained rat, mouse, dog or human liver microsomes (0.4-0.5 mg of protein), 100 mM potassium phosphate buffer (pH7.4), 50 μM test compound, an NADPH-generating system consisting of 0.5 mM NADP^+, 0.5 mM glucose-6-phosphate, 1 IU/mL glucose-6-phosphate dehydrogenase, 1 mg/mL diethylenetriaminepentaaceticacid (DETAPAC), and 3 mM MgCl2 in a final incubation volume of 0.25 mL. […] After centrifugation at 3000 rpm for 5 min, the organic fraction was collected, the solvent was removed with a stream of argon and the residue was reconstituted in 125 μL of MeOH and 125 μL H2O, mixed thoroughly, centrifuged at 13,000 rpm for 5 min and analyzed by high performance liquid chromatography. Samples were run on a Hitachi D-7000 HPLC system using a L-7100 analytical pump, L-7400 UV-Visible variable wavelength detector, and L-7600 automatic sample injector. […] Disappearance of the analyte was monitored over time. A plot of the area under the curve for the normalized analyte versus time afforded the half-life values and kapp.
Microsomes contain CYPs and FMO metabolic enzymes. S9 contains soluble enzymes (i.e., aldehyde oxidase, MAO, etc.).

[6] = system: cardiomyocytes derived from hiPSCs from a LQTS3 patient; conditions: for LQT-EC50 (μM) Shortening: AP shortening
[7] = molecular target: Nav1.5 sodium channel, peak current (INaP) (Homo sapiens, UniProt Q14524, form not given); assay: in vitro; conditions: Peak Na+ (INaP) IC50
Description: (§2) This provided data to investigate the physiology and action of target compounds on individual ion channels. The assay used standardized protocols for culturing and conducting conventional whole cell recording that have been previously developed for both current and voltage-clamp to characterize action potentials using transfected cells. Briefly, the Nav1.5 sodium channel was transfected into HEK293 cells. […] Briefly, cells were plated on 0.1% gelatin-coated 35-mm plastic Petri dishes. […] Data was reported as IC50 values±STD (Table 1).

[8] = molecular target: Nav1.5 sodium channel transfected into HEK293 cells (Homo sapiens, UniProt Q14524); assay: Patch clamp electrophysiology, peak (INaP) and late (INaL) sodium current in transfected cells
Description: as §2

[9] = molecular target: hERG potassium channel (IKr) (Homo sapiens, UniProt Q12809); assay: Automated patch clamp, hERG (IKr) expressed in CHO cells; conditions: for IC50: hERG (IKr) IC50, CHO cells
Male BALBc mice = conditions: mice, 100 mg/kg; for behavioral effects at 100 mg/kg: enantiomers
Description: Male BALBc mice (20-22 g) were used throughout these studies. The animals were maintained in a temperature-controlled room with 12-hr periods of light and darkness and had continuous access to water and animal food. […] Groups contained 2-4 animals.

[10] = Metabolic stability in human liver microsomes; assay type: in vitro ADME; conditions: human, microsomes
Description: as §1

[11] = pH 3, 100 μM in PBS, read-out: Half-Life @ pH 3.0 and 37° C.
[12] = pH 7.4, 100 μM in PBS, read-out: Half-Life @ pH 7.4 and 37° C.

hERG potassium channel (IKr), sequence (Q12809 whole entry): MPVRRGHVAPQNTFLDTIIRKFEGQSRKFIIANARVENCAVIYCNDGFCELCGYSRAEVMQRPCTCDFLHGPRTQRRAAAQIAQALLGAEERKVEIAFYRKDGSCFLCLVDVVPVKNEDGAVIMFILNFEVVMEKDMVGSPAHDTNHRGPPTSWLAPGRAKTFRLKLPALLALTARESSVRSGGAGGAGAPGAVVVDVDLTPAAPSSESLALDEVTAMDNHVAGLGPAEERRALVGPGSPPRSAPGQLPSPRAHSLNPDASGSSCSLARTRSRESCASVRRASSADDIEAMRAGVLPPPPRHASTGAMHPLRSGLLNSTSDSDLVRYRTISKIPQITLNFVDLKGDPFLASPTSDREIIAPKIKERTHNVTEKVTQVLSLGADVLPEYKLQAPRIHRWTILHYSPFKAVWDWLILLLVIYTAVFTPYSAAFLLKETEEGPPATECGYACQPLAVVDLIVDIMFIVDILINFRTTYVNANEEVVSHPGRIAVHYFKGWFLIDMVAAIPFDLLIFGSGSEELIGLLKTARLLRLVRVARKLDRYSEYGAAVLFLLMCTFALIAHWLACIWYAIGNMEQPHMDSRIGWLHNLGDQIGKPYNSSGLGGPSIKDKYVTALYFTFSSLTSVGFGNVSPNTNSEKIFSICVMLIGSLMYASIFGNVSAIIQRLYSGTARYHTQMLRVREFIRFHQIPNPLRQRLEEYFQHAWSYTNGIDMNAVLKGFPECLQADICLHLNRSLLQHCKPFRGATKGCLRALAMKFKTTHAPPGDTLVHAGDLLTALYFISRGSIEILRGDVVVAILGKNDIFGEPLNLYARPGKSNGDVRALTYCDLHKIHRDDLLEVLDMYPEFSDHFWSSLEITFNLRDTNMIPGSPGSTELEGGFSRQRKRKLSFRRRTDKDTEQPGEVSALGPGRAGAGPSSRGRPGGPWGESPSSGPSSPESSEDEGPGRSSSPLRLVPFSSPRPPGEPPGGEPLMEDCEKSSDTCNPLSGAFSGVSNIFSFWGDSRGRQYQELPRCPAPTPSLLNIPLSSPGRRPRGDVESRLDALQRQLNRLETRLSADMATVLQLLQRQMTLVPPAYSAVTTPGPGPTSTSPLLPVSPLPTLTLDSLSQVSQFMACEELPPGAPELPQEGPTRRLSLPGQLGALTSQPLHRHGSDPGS

## NC(COc1ccccc1C(F)(F)F)c1ccccc1 (stereo not drawn) [drawing 312]
[1]; [11]
  half-life at 100 μM: > 15 days
[1]; [12]
  half-life at 100 μM: > 30 days

## Cc1cccnc1OCC(N)c1ccccc1 (stereo not drawn) [Compound 94, 2-((3-methylpyridin-2-yl)oxy)-1-phenylethan-1-amine]
[2]; normal hiPSC cardiomyocytes
  Cessation of Beating: None
  WT-EAD Dose: 133 µM
[2]; pyridyl derivatives
  WT-Cessation Dose: No cessation of beatimg
[3]
  EC50: 18.5 µM
[4]; read-out: LQT-EC50 (μM) Shortening, pyridyl derivatives
  EC50: 12.8 µM

## Cc1cccc(C)c1OC[C@H](C)N [(S)-Mexiletine, reference compound]
[5]; human liver S-9, 1 hr
  Liver S-9, remaining after 1 hr: >95% after 1 hr

## Cc1ccncc1OCC(N)c1ccccc1 (stereo not drawn) [Compound 112]
[2]
  WT-Cessation Dose (μM): No cessation of beating
[6]; LQT-3 cardiomyocytes
  LQT-Fold Shortening: Does Not Shorten
  LQT-Shortening Dose (μM): Does Not Shorten
  LQT-EC50 (μM) Shortening: Does Not Shorten
[3]
  EC50: 19.4 µM

## Cc1ccccc1OCC(N)c1ccccc1 (stereo not drawn) [drawing 311]
[1]; [11]
  half-life at 100 μM: > 15 days

## Cc1cc(C)cc(OCC(N)c2ccccc2)c1 (stereo not drawn) [drawing 309]
[1]; [11]
  half-life at 100 μM: > 30 days
[1]; [12]
  half-life at 100 μM: > 30 days

## Cc1ccccc1OCC(N)c1ccccc1.Cl (stereo in doubt) [(R)-25]
[5]; human
  Liver S-9 T1/2: 0.283 days

## Cc1ccnc(C)c1OCC(N)c1ccccc1 (stereo not drawn) [Compound 118]
[2]
  WT-Cessation Dose (μM): No cessation of beating
[6]; LQT-3 cardiomyocytes
  LQT-Fold Shortening: Does Not Shorten
  LQT-Shortening Dose (μM): Does Not Shorten
  LQT-EC50 (μM) Shortening: Does Not Shorten
[3]
  EC50: 8.22 µM

## NC(COc1cnccc1C(F)(F)F)c1ccccc1 (stereo not drawn) [Compound 115]
[2]
  WT-Cessation Dose (μM): No cessation of beating
[6]; LQT-3 cardiomyocytes
  LQT-Fold Shortening: Does Not Shorten
  LQT-Shortening Dose (μM): Does Not Shorten
  LQT-EC50 (μM) Shortening: Does Not Shorten
[3]
  EC50: 25.7 µM

## Cc1cncc(OCC(N)c2ccccc2)c1 (stereo not drawn) [Compound 113]
[6]; LQT-3 cardiomyocytes
  LQT-Fold Shortening: Does Not Shorten
  LQT-Shortening Dose (μM): Does Not Shorten
  LQT-EC50 (μM) Shortening: Does Not Shorten
[3]
  EC50: 7.24 µM

## COCCNC(COc1cc(C(F)(F)F)cc(C(F)(F)F)c1)c1ccccc1.Cl (stereo not drawn) [Compound 80]
[7]
  IC50: 45.1 µM
[8]; ratio peak IC50/late IC50
  DNap/NaL: 44.2
[8]; ratio peak/late IC50, Example 2
  DNap/NaL: 44.2
[9]
  IC50: 16.8 µM
[9]; Example 2
  IC50: 16.8 µM
[9]; ratio hERG IC50/late Na IC50
  DKr/NaL: 16.5
[9]; ratio peak Na IC50/hERG IC50
  DNaP/Kr: 2.7
[9]; ratio, Example 2
  DKr/NaL: 16.5
  DNaP/Kr: 2.7
[2]; normal hiPSC cardiomyocytes
  WT-Fold Prolongation: None
  Cessation of Beating: None
  WT-Prolongation Dose: None
[6]; LQT3 cardiomyocytes
  LQT-Cessation Dose: 133 µM
  LQT-Fold Shortening: 1.636
[4]
  IC50: 6.59 µM

## COCCNC(COc1cccnc1)c1ccccc1 (stereo not drawn) [Compound 121]
[2]
  WT-Cessation Dose (μM): No cessation of beating
[6]; LQT-3 cardiomyocytes
  LQT-Fold Shortening: 1.144
[6]; LQT-3 cells
  LQT-3 shortening (in words): moderate shortening
[3]
  EC50: 25.4 µM
[4]; read-out: LQT-EC50 (μM) Shortening, LQT-3 cardiomyocytes, AP shortening
  EC50: 2.58 µM

## Cc1ccccc1OCC(N)c1ccccc1.Cl (stereo in doubt) [(S)-25]
[5]; human, s9, 1 h
  Liver S-9, remaining after 1 hr: >95% after 1 hr

## COCCNC(COc1ccncc1)c1ccccc1 (stereo not drawn) [Compound 127]
[2]
  WT-Cessation Dose (μM): No cessation of beating
[6]; LQT-3 cardiomyocytes
  LQT-Fold Shortening: Does Not Shorten
  LQT-Shortening Dose (μM): Does Not Shorten
  LQT-EC50 (μM) Shortening: Does Not Shorten
[3]
  EC50: 97.7 µM

## NC(COc1cc(C(F)(F)F)cc(C(F)(F)F)c1)c1ccccc1 (stereo not drawn) [drawing 310]
[1]; [11]
  half-life at 100 μM: > 30 days
[1]; [12]
  half-life at 100 μM: 30 days

## Cc1cc(C)cc(OCC(N)c2ccccc2)c1.Cl (stereo in doubt) [(S)-70]
Male BALBc mice
  Behavior Effect (S)-enantiomer: 2/4 lethargic
  behavioral effects at 100 mg/kg: Minor lethargy
[10]
  Liver Microsomes, remaining after 1 hr: >95% after 1 hr
[5]; human, s9, 1 h
  Liver S-9, remaining after 1 hr: >95% after 1 hr

## Cc1cc(C)cc(OCC(N)c2ccccc2)c1.Cl (stereo in doubt) [(R)-70]
Male BALBc mice
  Behavior Effect (R)-enantiomer: No detectable effect
  behavioral effects at 100 mg/kg: no apparent behavioral effects
[10]
  Liver Microsomes T1/2: 0.282 days
[5]; human
  Liver S-9 T1/2: 0.7049 days

## CNC(C)COc1c(C)cccc1C (stereo not drawn) [Compound 11, 1-(2,6-dimethylphenoxy)-N-methylpropan-2-amine]
[7]
  IC50: 124 µM
[8]
  IC50: 36 µM
[8]; ratio peak IC50/late IC50
  DNap/NaL: 3.4
[9]
  IC50: 44 µM
[9]; ratio hERG IC50/late Na IC50
  DKr/NaL: 1.2
[9]; ratio peak Na IC50/hERG IC50
  DNaP/Kr: 2.8
[2]; normal hiPSC cardiomyocytes
  WT-Fold Prolongation: 2.194
  WT-EAD Dose: 22 µM
[6]; LQT3 cardiomyocytes
  LQT-Cessation Dose: 133 µM
  LQT-Fold Shortening: 1.112
[4]
  IC50: 1.48 µM

## Cl.NC(COc1cc(C(F)(F)F)cc(C(F)(F)F)c1)c1ccccc1 (stereo in doubt) [(S)-78]
Male BALBc mice
  Behavior Effect (S)-enantiomer: 2/4 shaking
  behavioral effects at 100 mg/kg: Minor lethargy
[10]
  Liver Microsomes, remaining after 1 hr: >95% after 1 hr
[5]; human
  Liver S-9 T1/2: 0.7222 days

## Cl.NC(COc1cc(C(F)(F)F)cc(C(F)(F)F)c1)c1ccccc1 (stereo in doubt) [(R)-78]
Male BALBc mice
  Behavior Effect (R)-enantiomer: No detectable effect
  behavioral effects at 100 mg/kg: no apparent behavioral effects
[10]
  Liver Microsomes, remaining after 1 hr: >95% after 1 hr
[5]; human, s9, 1 h
  Liver S-9, remaining after 1 hr: >95% after 1 hr

## Cc1cc(C)c(OCC(N)c2ccccc2)cn1 (stereo not drawn) [Compound 120]
[2]
  WT-Cessation Dose (μM): No cessation of beating
[6]; LQT-3 cardiomyocytes
  LQT-Fold Shortening: Does Not Shorten
  LQT-Shortening Dose (μM): Does Not Shorten
  LQT-EC50 (μM) Shortening: Does Not Shorten
[3]
  EC50: 7.33 µM

## Cl.NC(COc1ccccc1C(F)(F)F)c1ccccc1 (stereo in doubt) [(S)-82]
Male BALBc mice
  Behavior Effect (S)-enantiomer: 2/4 slightly lethargic
  behavioral effects at 100 mg/kg: Minor lethargy
[10]
  Liver Microsomes T1/2: 0.253 days
[5]; human, s9, 1 h
  Liver S-9, remaining after 1 hr: >95% after 1 hr

## Cc1cccc(C)c1OC[C@@H](C)N [(R)-Mexiletine, reference compound]
[5]; human liver S-9, 1 hr
  Liver S-9, remaining after 1 hr: >95% after 1 hr
